Read-outs that look alike come from different tables or passages of the source.
Tests used:
[1] = system: Beet Armyworm (Spodoptera exigua) ("BAW"), second instar larvae; test: Bioassay on beet armyworm (BAW), 128-well diet tray assay; format: in vivo; details: for BAW rating: Table ABC, species BAW, C = not tested, D = no activity noticed; for pest or weed control at 50 µg/cm2: Spodoptera exigua
How it was run: (§1)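 Each value represents average percent mortality from eight wells. Larvae were kept in clear-covered trays at 25° C. for five to seven days on a 14-hour light, 10-hour dark schedule before scoring.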

[2] = system: Cabbage Looper (Trichoplusia ni) ("CL"), second instar larvae; test: Bioassay on cabbage looper (CL), 128-well diet tray assay; format: in vivo; details: for CL rating: Table ABC, species CL, C = not tested, D = no activity noticed; for pest or weed control at 50 µg/cm2: Trichoplusia ni
How it was run: as §1

[3] = read-out: BAW (Biological Results, rating)
[4] = read-out: CL (Biological Results, rating)

Structure (SMILES)	BAW rating [1]	CL rating [2]	pest or weed control at 50 µg/cm2 [1, 3]	pest or weed control at 50 µg/cm2 [2, 4]	further results
Cc1ccc(COCCC(F)(F)F)c(N2C(=O)CS/C2=N\C(=O)Nc2ccc(-c3ncn(-c4ccc(C(F)(F)F)cc4)n3)cc2F)c1 [Compound J547]	A (50-100)	A (50-100)	–	–	–
COCc1ccc(C)cc1N1C(=O)CS/C1=N\C(=O)Nc1ccc(-c2nnc(-c3ccc(OC(F)(F)F)cc3)o2)cc1F [Compound J609, (Z)-1-(2-Fluoro-4-(5-(4-(trifluoromethoxy)phenyl)-1,3,4-oxadiazol-2-yl)phenyl)-3-(3-(2-(methoxymethyl)-5-methylphenyl)-4-oxothiazolidin-2-ylidene)urea]	–	–	–	–	pest or weed control at 50 µg/cm2 ([1]; read-out: BAW rating): 50 to 100%; pest or weed control at 50 µg/cm2 ([2]; read-out: CL rating): 50 to 100%
Cc1ccc(OCCC(F)(F)F)c(N2C(=O)CS/C2=N\C(=O)Nc2ccc(-c3ncn(-c4ccc([S+]([O-])C(F)(F)F)cc4)n3)cc2F)c1 (centres unmarked) [Compound J382, (Z)-1-(2-Fluoro-4-(1-(4-((trifluoromethyl)sulfinyl)phenyl)-1H-1,2,4-triazol-3-yl)phenyl)-3-(3-(5-methyl-2-(3,3,3-trifluoropropoxy)phenyl)-4-oxothiazolidin-2-ylidene)urea]	–	–	–	–	pest or weed control at 50 µg/cm2 ([1]; read-out: BAW rating): 50 to 100%; pest or weed control at 50 µg/cm2 ([2]; read-out: CL rating): 50 to 100%
CCc1cc(-c2ncn(-c3ccc(OC(F)(F)F)cc3)n2)ccc1NC(=O)/N=C1\SCC(=O)N1c1cc(N(CC)CC)ccc1C(C)C [Compound J160, (Z)-1-(3-(5-(Diethylamino)-2-isopropylphenyl)-4-oxothiazolidin-2-ylidene)-3-(2-ethyl-4-(1-(4-(trifluoromethoxy)phenyl)-1H-1,2,4-triazol-3-yl)phenyl)urea]	–	–	50 to 100%	50 to 100%	–
COc1ccc(COCC(F)(F)F)c(N2C(=O)CS/C2=N\C(=O)Nc2ccc(-c3ncn(-c4ccc(S(F)(F)(F)(F)F)cc4)n3)cc2F)c1 [Compound J565]	A (50-100)	A (50-100)	–	–	–
COC(C)c1ccc(C)cc1N1C(=O)CS/C1=N\C(=O)Nc1ccc(-c2ncn(-c3ccc(OC(F)(F)F)cn3)n2)cc1F (centres unmarked) [Compound J236, (Z)-1-(2-Fluoro-4-(1-(5-(trifluoromethoxy)pyridin-2-yl)-1H-1,2,4-triazol-3-yl)phenyl)-3-(3-(2-(1-methoxyethyl)-5-methylphenyl)-4-oxothiazolidin-2-ylidene)urea]	–	–	50 to 100%	50 to 100%	–
Cc1ccc(Cc2ccccc2)c(N2C(=O)CS/C2=N\C(=O)Nc2ccc(-c3ncn(-c4ccc(S(F)(F)(F)(F)F)cc4)n3)cc2F)c1 [Compound J563, (Z)-1-(3-(2-Benzyl-5-methylphenyl)-4-oxothiazolidin-2-ylidene)-3-(2-fluoro-4-(1-(4-(pentafluoro-λ^6-sulfaneyl)phenyl)-1H-1,2,4-triazol-3-yl)phenyl)urea]	–	–	–	–	pest or weed control at 50 µg/cm2 ([1]; read-out: BAW rating): 50 to 100%; pest or weed control at 50 µg/cm2 ([2]; read-out: CL rating): 50 to 100%
COC(C)c1cc(C)ccc1N1C(=O)CS/C1=N\C(=O)Nc1ccc(-c2ncn(-c3ccc(C(F)(F)F)cn3)n2)cc1F (centres unmarked) [Compound J300, (Z)-1-(2-Fluoro-4-(1-(5-(trifluoromethyl)pyridin-2-yl)-1H-1,2,4-triazol-3-yl)phenyl)-3-(3-(2-(1-methoxyethyl)-4-methylphenyl)-4-oxothiazolidin-2-ylidene)urea]	–	–	50 to 100%	50 to 100%	–
CC(C)c1ccc(N(C)C)cc1N1C(=O)CS/C1=N\C(=O)Nc1ccc(-c2ncn(-c3ccc(OC(F)(F)F)cn3)n2)cc1F [Compound J238, (Z)-1-(3-(5-(Dimethylamino)-2-isopropylphenyl)-4-oxothiazolidin-2-ylidene)-3-(2-fluoro-4-(1-(5-(trifluoromethoxy)pyridin-2-yl)-1H-1,2,4-triazol-3-yl)phenyl)urea]	–	–	50 to 100%	50 to 100%	–
Cc1ccc(COCC(F)(F)F)c(N2C(=O)CS/C2=N\C(=O)Nc2ccc(-c3ncn(-c4ccc(S(F)(F)(F)(F)F)cc4)n3)cc2C(F)(F)F)c1 [Compound J626, (Z)-1-(3-(5-Methyl-2-((2,2,2-trifluoroethoxy)methyl)phenyl)-4-oxothiazolidin-2-ylidene)-3-(4-(1-(4-(pentafluoro-λ^6-sulfaneyl)phenyl)-1H-1,2,4-triazol-3-yl)-2-(trifluoromethyl)phenyl)urea]	–	–	–	–	pest or weed control at 50 µg/cm2 ([1]; read-out: BAW rating): 50 to 100%; pest or weed control at 50 µg/cm2 ([2]; read-out: CL rating): 50 to 100%
CCOCc1ccc(C)cc1N1C(=O)CS/C1=N\C(=O)Nc1ccc(-c2ncn(-c3ccc(SC(F)(F)F)cc3)n2)cc1F [Compound J195, (Z)-1-(3-(2-(Ethoxymethyl)-5-methylphenyl)-4-oxothiazolidin-2-ylidene)-3-(2-fluoro-4-(1-(4-((trifluoromethyl)thio)phenyl)-1H-1,2,4-triazol-3-yl)phenyl)urea]	–	–	50 to 100%	50 to 100%	–
CCCc1ccc(N(C)C)cc1N1C(=O)CS/C1=N\C(=O)Nc1ccc(-c2ncn(-c3ccc(OC(F)(F)F)cn3)n2)cc1F [Compound J258, (Z)-1-(3-(5-(Dimethylamino)-2-propylphenyl)-4-oxothiazolidin-2-ylidene)-3-(2-fluoro-4-(1-(5-(trifluoromethoxy)pyridin-2-yl)-1H-1,2,4-triazol-3-yl)phenyl)urea]	–	–	50 to 100%	50 to 100%	–
CCCNc1ccc(C(C)C)c(N2C(=O)CS/C2=N\C(=O)Nc2ccc(-c3ncn(-c4ccc(OC(F)(F)F)cc4)n3)cc2F)c1 [Compound J107, (Z)-1-(2-Fluoro-4-(1-(4-(trifluoromethoxy)phenyl)-1H-1,2,4-triazol-3-yl)phenyl)-3-(3-(2-isopropyl-5-(propylamino)phenyl)-4-oxothiazolidin-2-ylidene)urea]	–	–	50 to 100%	50 to 100%	–
Cc1ccc(COCCF)c(N2C(=O)CS/C2=N\C(=O)Nc2ccc(-c3ncn(-c4ccc(OC(F)(F)F)cc4)n3)cc2C)c1 [Compound J558]	A (50-100)	A (50-100)	–	–	–
Cc1ccc(OCCC(F)(F)F)c(N2C(=O)CS/C2=N\C(=O)Nc2ccc(-c3ncn(-c4ccc(OC(F)(F)F)cn4)n3)cc2C#N)c1 [Compound J264, (Z)-1-(2-Cyano-4-(1-(5-(trifluoromethoxy)pyridin-2-yl)-1H-1,2,4-triazol-3-yl)phenyl)-3-(3-(5-methyl-2-(3,3,3-trifluoropropoxy)phenyl)-4-oxothiazolidin-2-ylidene)urea]	–	–	50 to 100%	50 to 100%	–
Cc1ccc(COCC(F)F)c(N2C(=O)CS/C2=N\C(=O)Nc2ccc(-c3noc(-c4ccc(OC(F)(F)F)cc4)n3)cc2F)c1 [Compound J771, (Z)-1-(3-(2-((2,2-Difluoroethoxy)methyl)-5-methylphenyl)-4-oxothiazolidin-2-ylidene)-3-(2-fluoro-4-(5-(4-(trifluoromethoxy)phenyl)-1,2,4-oxadiazol-3-yl)phenyl)urea]	–	–	–	–	pest or weed control at 50 µg/cm2 ([1]; read-out: BAW rating): 50 to 100%; pest or weed control at 50 µg/cm2 ([2]; read-out: CL rating): 50 to 100%
Cc1ccc(C(C)C)c(N2C(=O)CS/C2=N\C(=O)Nc2ccc(-c3ncn(-c4ccc(OC(F)(F)C(F)(F)F)cc4)n3)cc2F)c1 [Compound J26, (Z)-1-(2-Fluoro-4-(1-(4-(perfluoroethoxy)phenyl)-1H-1,2,4-triazol-3-yl)phenyl)-3-(3-(2-isopropyl-5-methylphenyl)-4-oxothiazolidin-2-ylidene)urea]	–	–	50 to 100%	50 to 100%	–
Cc1ccc(COCC(F)(F)F)c(N2C(=O)CS/C2=N\C(=O)Nc2ccc(-c3ncn(-c4cccc(OC(F)(F)F)c4)n3)cc2C)c1 [Compound J722]	A (50-100)	A (50-100)	–	–	–
CCCNc1ccc(C(C)C)c(N2C(=O)CS/C2=N\C(=O)Nc2ccc(-c3ncn(-c4ccc(OC(F)(F)F)cc4)n3)cc2CC)c1 [Compound J159, (Z)-1-(2-Ethyl-4-(1-(4-(trifluoromethoxy)phenyl)-1H-1,2,4-triazol-3-yl)phenyl)-3-(3-(2-isopropyl-5-(propylamino)phenyl)-4-oxothiazolidin-2-ylidene)urea]	–	–	50 to 100%	50 to 100%	–
Cc1ccc(COCC(Cl)(Cl)Cl)c(N2C(=O)CS/C2=N\C(=O)Nc2ccc(-c3ncn(-c4ccc(S(F)(F)(F)(F)F)cc4)n3)cc2F)c1 [Compound J453]	A (50-100)	A (50-100)	–	–	–
Cc1cc(COCC(F)(F)F)c(N2C(=O)CS/C2=N\C(=O)Nc2ccc(-c3ncn(-c4ccc(OC(F)(F)F)cc4)n3)cc2C)cc1C [Compound J460]	A (50-100)	A (50-100)	–	–	–
Cc1ccc(OCCC(F)(F)F)c(N2C(=O)CS/C2=N\C(=O)Nc2ccc(-c3ncn(-c4ccc(SC(F)(F)F)cc4)n3)cc2F)c1 [Compound J333, (Z)-1-(2-Fluoro-4-(1-(4-((trifluoromethyl)thio)phenyl)-1H-1,2,4-triazol-3-yl)phenyl)-3-(3-(5-methyl-2-(3,3,3-trifluoropropoxy)phenyl)-4-oxothiazolidin-2-ylidene)urea]	–	–	50 to 100%	50 to 100%	–
CCc1ccc(COCC(F)(F)F)c(N2C(=O)CS/C2=N\C(=O)Nc2ccc(-c3ncn(-c4ccc(C(F)(F)F)cc4)n3)cc2F)c1 [Compound J642]	A (50-100)	A (50-100)	–	–	–
CC(C)c1ccc(N(C)C)cc1N1C(=O)CS/C1=N\C(=O)Nc1ccc(-c2ncn(-c3ccc(S(F)(F)(F)(F)F)cc3)n2)cc1F [Compound J450]	A (50-100)	A (50-100)	–	–	–
Cc1ccc(COCC(F)(F)F)c(N2C(=O)CS/C2=N\C(=O)Nc2ccc(-c3ncn(-c4ccc(C(F)(F)F)cc4)n3)cc2C)c1 [Compound J167, (Z)-1-(3-(5-Methyl-2-((2,2,2-trifluoroethoxy)methyl)phenyl)-4-oxothiazolidin-2-ylidene)-3-(2-methyl-4-(1-(4-(trifluoromethyl)phenyl)-1H-1,2,4-triazol-3-yl)phenyl)urea]	–	–	50 to 100%	50 to 100%	–
